Marks after values point to notes of the source that are not given here.
Tests used:
Sprague Dawley rats [1] = test: Palatability (no-choice) trial, peanut butter bait; type: in vivo, rat (Sprague Dawley); details: 1% w/w toxicant in peanut butter bait, n = 6, 3 male and 3 female rats
From the text: In the palatability trials, Sprague Dawley rats (ca. 250 g) were presented with 1% w/w compound (n=6) or 0.5% w/w compound (n=5) in a peanut butter bait, following 3 days ‘pre-baiting’ with a peanut butter formulation free of toxicant.

Sprague Dawley rats [2] = test: In vivo lethality, oral gavage; parameters: species or system rat (Sprague Dawley); details: rat; for Time to Death (min) / Onset of Symptoms: mean time; for Onset of Symptoms: visual signs of distress consistent with NRB-like symptoms; for In vivo lethality (oral): n = 2
Procedure, shortened: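 Sprague Dawley rats (150-200 g) received compound dissolved in 0.2 M HCl (5% DMSO overall) at the desired dose, by oral gavage or tail-vein i.v. injection. Animals were watched for early toxicity signs every minute (i.v.) or every 15 min (oral).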

Sprague Dawley rats [3] = test: Palatability (no-choice) trial, peanut butter bait; type: in vivo, rat (Sprague Dawley); details: 2% w/w toxicant in peanut butter bait, n = 6, Table 12
rat caudal artery = test: Rat caudal artery ring contractile force (vasoconstrictory activity); parameters: species or system rat (male Wistar)
Procedure, shortened: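 Endothelium-denuded caudal artery rings from male Wistar rats were held at 2 g resting tension in Tyrode solution (37° C, pH 7.35, 95% O2/CO2) and isometric force was recorded. Compounds were tested at 50 μM, with contraction expressed as percent of the 90 mM KCl response.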

Sprague Dawley rats [4] = test: Palatability (choice) trial, peanut butter bait; type: in vivo, rat (Sprague Dawley); details: choice of EPA diet (20 g) and bait with 1% w/w toxicant (20 g), 2 days, n = 2; Table 15
Sprague Dawley rats [5] = test: In vivo lethality, intravenous injection via the tail; parameters: species or system rat (Sprague Dawley); details: 20 mg/Kg, rat, n = 2
Experimental: Sprague Dawley rats (150-200 g) were used to appraise the rodenticidal activity of the compounds put forward for in vivo evaluation. Briefly, prior to administration the compounds were dissolved in 0.2 M hydrochloric acid (5% DMSO overall), to the desired dose, and without delay either injected intravenously, via the tail, or orally gavaged. All treated animals were housed in a quiet room and monitored every minute (i.v) or every 15 min (oral) to verify early signs of toxicity.

[6] = Rat liver S9 fraction assay (release of NRB or NRB analogue); type: in vitro ADME, rat (male Sprague-Dawley); details: 1 mg/mL rat liver S9 fraction, 37° C., 6 h, n = 3
Experimental: The hydrolytic stability of compounds of the invention was also evaluated in vitro using rat liver S9 fraction (20 mg/mL), pooled from male rat (Sprague-Dawley), obtained from Sigma-Aldrich, diluted to 1 mg/mL with phosphate buffer (0.1 M, pH 7.4) and stored at −78° C. Similar assay conditions to those reported by Li Di and co-workers (Int. J. Pharm. 2005, 297, 110-119) were followed [200 μL total volume, 1 mg/mL rat liver S9 fraction (diluting with phosphate buffer (0.1 M, pH 7.4)), at a final compound concentration of 200 μM, 2.5% DMSO overall, 37° C., 6 h, n=3]. The assay protocol followed is as that described above for the rat serum assay, with an adjusted end-point of 6 h.

[7] = Simulated gastric fluid (SGF) hydrolytic stability assay; type: physicochemical; details: footnote c: compounds not exhibiting vasoconstriction; simulated gastric fluid without pepsin, pH 1.2, 37° C., 1 h, n = 3
Procedure, shortened: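 Compounds at 200 μM final (2.5% DMSO) were held 1 h at 37 °C in pepsin-free USP simulated gastric fluid (0.03 M NaCl, pH 1.2 with HCl), n=3. […] was quantified by RP-LCMS.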

[8] = Rat serum assay (release of NRB or NRB analogue); type: in vitro ADME; details: 80% rat serum, 37° C., 3 h, n = 3
Procedure, shortened: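 Compound (200 μM final) incubated in 80% rat serum diluted with 0.1 M phosphate pH 7.4, 2.5% DMSO, 37 °C for 3 h, n=3, then quenched in ice-cold acetonitrile. NRB or analogue release was quantified by RP-LCMS against external calibration curves, expressed as percent released.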

Molecule | No of deaths (Sprague Dawley rats [1]; Table 12) | Time to Death (min) (Sprague Dawley rats [2]; 20 mg/Kg) | Onset of Symptoms (Sprague Dawley rats [2]; 20 mg/Kg) [min] | In vivo lethality (oral) (Sprague Dawley rats [2]; 40 mg/Kg) | No of deaths (Sprague Dawley rats [3]) | Vasoconstriction: maximum contractile effect as a % of 90 mM KCl contraction (rat caudal artery; Table 2, compound at 50 μM) [%] | Vasoconstriction: maximum contractile effect as a % of 90 mM KCl contraction (rat caudal artery; Table 4, pre-cleavage, n = 3) [%] | No of deaths (Sprague Dawley rats [4]) | In vivo lethality (i.v.) (Sprague Dawley rats [5]) | Vasoconstriction: maximum contractile effect as a % of 90 mM KCl contraction (rat caudal artery; Table 1, compound at 50 μM) [%] | % NRB released, Rat Liver S9 [6] [%] | % NRB released, Hydrolytic Stability (simulated gastric fluid) [7] | % NRB released, Rat Serum [8] [%] | In vivo lethality (oral) (Sprague Dawley rats [2]; 20 mg/Kg) | No of deaths (Sprague Dawley rats [1]; Table 11)
CCCCCCCCCCCC(=O)NCCN1C(=O)C2C3C=C(C(O)(c4ccccc4)c4ccccn4)C(C3=C(c3ccccc3)c3ccccn3)C2C1=O (stereo not drawn) [Compound 339, N-2′-Dodecanamidoethyl-5-(α-hydroxy-α-2-pyridylbenzyl)-7-(α-2-pyridylbenzylidene)-5-norbornene-2,3-dicarboximide] | 3/6 | 300^e min | 200 | yes^h | 5/6 | 0 | 0 | 3/12 |  |  |  |  |  |  | 
O=C(C=Cc1ccccc1)OCCCN1C(=O)C2C3C=C(C(O)(c4ccccc4)c4ccccn4)C(C3=C(c3ccccc3)c3ccccn3)C2C1=O (stereo not drawn) [Compound 136, N-3′-Cinnamoyloxypropyl-5-(α-hydroxy-α-2-pyridylbenzyl)-7-(α-2-pyridylbenzylidene)-5-norbornene-2,3-dicarboximide] |  | not lethal | 20 | yes^h |  |  | 0 |  | yes^f | 0 | 18.2 ± 2.7 | 0^c % | 76.5 ± 5.7 |  | 
O=C(OCCN1C(=O)C2C3C=C(C(O)(c4ccccc4)c4ccccn4)C(C3=C(c3ccccc3)c3ccccn3)C2C1=O)C(c1ccccc1)c1ccccc1 (stereo not shown) [Compound 118] |  |  |  | no^h |  |  | 0 |  | yes^f | 0 | 9.0 ± 0.7 | 0^c % | <5 |  | 
5-(α-Hydroxy-α-2-pyridylbenzyl)-N-2′-phenylpropioyloxyethyl-7-(α-2-pyridylbenzylidene)-5-norbornene-2,3-dicarboximide [Compound 123] |  | 35^d min | 15 | yes^h,i |  |  | 0 |  | yes^f | 0 | 55.6 ± 4.1 | 0^c % | 84.5 ± 2.0 | yes^h,i | 
CCCCCCCC(=O)OCCN1C(=O)C2C3C=C(C(O)(c4ccccc4)c4ccccn4)C(C3=C(c3ccccc3)c3ccccn3)C2C1=O (stereo not drawn) [Compound 111, 5-(α-Hydroxy-α-2-pyridylbenzyl)-N-2′-octanoyloxyethyl-7-(α-2-pyridylbenzylidene)-5-norbornene-2,3-dicarboximide] |  | >120^e min | 15 |  |  |  | 0 |  |  | 0 | 48.5 ± 8.5 | 20^c % | 87.9 ± 0.7 |  | 6/6
O=C(OCN1C(=O)C2C3C=C(C(O)(c4ccccc4)c4ccccn4)C(C3=C(c3ccccc3)c3ccccn3)C2C1=O)c1ccc2ccccc2c1 (stereo not drawn) [Compound 20, 5-(α-Hydroxy-α-2-pyridylbenzyl)-2′-naphthoyloxymethyl-7-(α-2-pyridylbenzylidene)-5-norbornene-2,3-dicarboximide] |  |  |  | no^h |  |  | 0 |  | yes^f | 0 | 20.2 ± 0.8 | 0^c % | 31.3 ± 2.7 |  | 

Reference: patent US9198420B2, “Rodenticidal norbormide analogues” (priority 2012, dated 2015)
